Values quoted from earlier work, collected in PubChem BioAssay AID1259409 (Chemical Carcinogenesis Research Information System (CCRIS), 2018).

System: rodent chemically induced tumor inhibition, incidence and multiplicity
Assay: CCRIS tumor inhibitor studies

Nc1nc2ncc(CNc3ccc(C(=O)N[C@@H](CCC(=O)O)C(=O)O)cc3)nc2c(=O)[nH]1
tumour outcome (control, treated, inhibition, significance) (Carcinogen: HYDRAZINE SULFATE, 10034-93-2, Dose [Inhibitor]: 1.1 MG/D IN DIET STARTING 1 WK PRIOR TO ADMINISTRATION OF CARCINOGEN UNTIL END OF EXPERIMENT (STUDY DURATION: APPROXIMAT, Route [Inhibitor]: ORAL, Species: MOUSE, Strain/Sex: SWISS/MALE, FEMALE, Target Tissue: Type of Lesion: LIVER AND LUNG: COMBINED TUMORS, Dose [Carcinogen]: 1.1 MG/D 5 D/WK UNTIL 12 MO OF AGE, Promoter: NONE USED): 24/29 (83%), 19/31 (61%), 26%, p<0.1
tumour outcome (control, treated, inhibition, significance) (Carcinogen: ISONIAZID, 54-85-3, Dose [Inhibitor]: 1.1 MG/D SIMULTANEOUS WITH CARCINOGEN 6 D/WK (STUDY DURATION: LIFETIME), Route [Inhibitor]: INTRAGASTRIC, Species: MOUSE, Strain/Sex: SWISS/MALE, Target Tissue: Type of Lesion: LUNG: TUMOR, Dose [Carcinogen]: 1.1 MG/D SIMULTANEOUS WITH INHIBITOR, Promoter: NONE USED): 15/29 (52%), 0/16 (0%), 100%, p<0.01
tumour outcome (control, treated, inhibition, significance) (Carcinogen: N-methyl-N'-nitro-N-nitrosoguanidine, 70-25-7, Dose [Inhibitor]: 0, 5 mg/kg in water for 50 weeks beginning at 6 weeks of age, Route [Inhibitor]: Oral, Species: Rat, Strain/Sex: Wistar/Male, Target Tissue: Type of Lesion: Stomach: Tumor, Dose [Carcinogen]: 100 mg/L in drinking water for 50 weeks): 5/11 (45.5%), 0/10 (0%), 100% p<0.05

O=C(c1ccc(O)cc1O)C(c1coc2cc(O)ccc2c1=O)C(c1ccc(O)cc1)c1ccc(O)cc1 (stereo not drawn)
tumour outcome (control, treated, inhibition, significance) (Carcinogen: 7,12-DIMETHYLBENZ[A]ANTHRACENE, 57-97-6, Dose [Inhibitor]: 0, 16 NMOL 2/WK 1 HR PRIOR TO EACH PROMOTER DOSE FOR 20 WK (STUDY DURATION: 20 WK), Route [Inhibitor]: DERMAL, Species: MOUSE, Strain/Sex: ICR/FEMALE, Target Tissue: Type of Lesion: SKIN: TUMOR, Dose [Carcinogen]: 0.19 UMOL ONCE, Promoter: 12-0-TETRADECANOYLPHORBOL-13-ACETATE, 16561-29-8): 70%, 60%, 14%, not calculated

S=C=S
tumour outcome (control, treated, inhibition, significance) (Carcinogen: 1,2-DIMETHYLHYDRAZINE, 540-73-8, Dose [Inhibitor]: 0, 250 MG/KG BW IN CORN OIL ADMINISTERED 24 AND 2 HR PRIOR TO AND 24 HR POST EACH CARCINOGEN DOSE (STUDY DURATION: 8 MO), Route [Inhibitor]: GAVAGE, Species: RAT, Strain/Sex: BD6/MALE, Target Tissue: Type of Lesion: INTESTINE: TUMOR, Dose [Carcinogen]: 20 MG/KG BW 1/WK FOR 20 WK, Promoter: NONE USED): 100%, 0%, 100%, not calculated

O=C1NS(=O)(=O)c2ccccc21
tumour outcome (control, treated, inhibition, significance) (Carcinogen: N-BUTYL-N-(4-HYDROXYBUTYL)NITROSAMINE, 3817-11-6, Dose [Inhibitor]: 0.5% DIET DAILY FOR 34 WK STARTING AT COMPLETION OF CARCINOGEN TREATMENT (STUDY DURATION: 38 WK), Route [Inhibitor]: ORAL, Species: RAT, Strain/Sex: F344/MALE, Target Tissue: Type of Lesion: URINARY BLADDER: PAPILLOMA, Dose [Carcinogen]: 0.01% IN DRINKING WATER FOR 4 WK, Promoter: NONE USED): 33%, 33%, 0%, not significant
tumour outcome (control, treated, inhibition, significance) (Carcinogen: N-BUTYL-N-(4-HYDROXYBUTYL)NITROSAMINE, 3817-11-6, Dose [Inhibitor]: 5% DIET DAILY FOR 34 WK STARTING AT COMPLETION OF CARCINOGEN TREATMENT (STUDY DURATION: 38 WK), Route [Inhibitor]: ORAL, Species: RAT, Strain/Sex: F344/MALE, Target Tissue: Type of Lesion: URINARY BLADDER: PAPILLOMA, Dose [Carcinogen]: 0.01% IN DRINKING WATER FOR 4 WK, Promoter: NONE USED): 33%, 20%, 39%, not significant

CCCCCCCCCCCCCCCC(=O)OCC1(O)CC23CC[C@@H]4c5ccoc5C=CC4(C)C2CCC1C3 (stereo partly drawn)
tumour outcome (control, treated, inhibition, significance) (Carcinogen: 7,12-DIMETHYLBENZ[A]ANTHRACENE, 57-97-6, Dose [Inhibitor]: 0, 60 MG 1/D FOR 3 D BEGINNING 3 D PRIOR TO CARCINOGEN DOSE (STUDY DURATION: 20 WK), Route [Inhibitor]: GAVAGE, Species: RAT, Strain/Sex: SPRAGUE-DAWLEY/FEMALE, Target Tissue: Type of Lesion: MAMMARY GLAND: TUMOR, Dose [Carcinogen]: 12 MG IN 1 ML OLIVE OIL ONCE, Promoter: NONE USED): 84%, 56%, 33%, p<0.05
tumour outcome (control, treated, inhibition, significance) (Carcinogen: 7,12-DIMETHYLBENZ[A]ANTHRACENE, 57-97-6, Dose [Inhibitor]: 0, 60 MG ONCE 4 HR PRIOR TO CARCINOGEN DOSE (STUDY DURATION: 20 WK), Route [Inhibitor]: GAVAGE, Species: RAT, Strain/Sex: SPRAGUE-DAWLEY/FEMALE, Target Tissue: Type of Lesion: MAMMARY GLAND: TUMOR, Dose [Carcinogen]: 12 MG IN 1 ML OLIVE OIL ONCE, Promoter: NONE USED): 84%, 63%, 25%, p<0.05

Cc1csc(NC(=O)C(C(=O)OC(C)C)=C2SCS2)n1
tumour outcome (control, treated, inhibition, significance) (Carcinogen: BENZO[A]PYRENE [50-32-8], Dose [Inhibitor]: 0, 150 MG/KG BW IN TRIOCTANOIN 1 D AND 2 HR PRIOR TO CARCINOGEN DOSE (STUDY DURATION: 21 WK), Route [Inhibitor]: GAVAGE, Species: MOUSE, Strain/Sex: CD-1/FEMALE, Target Tissue: Type of Lesion: SKIN: PAPILLOMA, Dose [Carcinogen]: 0.3 UMOL IN 0.2 ML ACETONE ONCE, Promoter: 12-O-TETRADECANOYLPHORBOL-13-ACETATE [16561-29-8]): 92%, 73%, 21%, not calculated
tumour outcome (control, treated, inhibition, significance) (Carcinogen: BENZO[A]PYRENE [50-32-8], Dose [Inhibitor]: 150 MG/KG IN 10 µL TRIOCTANOIN ONCE 1 D AND 2 HR PRIOR TO CARCINOGEN DOSE (STUDY DURATION: 21 WK), Route [Inhibitor]: GAVAGE, Species: MOUSE, Strain/Sex: CD-1/FEMALE, Target Tissue: Type of Lesion: SKIN: PAPILLOMA, Dose [Carcinogen]: 0.3 UMOL IN 0.2 ML ACETONE ONCE (STUDY DURATION: 21 WK), Promoter: 12-O-TETRADECANOYLPHORBOL-13-ACETATE [16561-29-8]): 92%, 75%, 18%, not calculated
tumour outcome (control, treated, inhibition, significance) (Carcinogen: VINYL CARBAMATE, 15805-73-9, Dose [Inhibitor]: 0, 150 MG/KG BW ONCE AT 2 HR AND 1 D PRIOR TO CARCINOGEN DOSE (STUDY DURATION: 22 WK), Route [Inhibitor]: GAVAGE, Species: MOUSE, Strain/Sex: CD-1/FEMALE, Target Tissue: Type of Lesion: SKIN: PAPILLOMA, Dose [Carcinogen]: 11.5 UMOL IN 0.2 ML ACETONE ONCE, Promoter: 12-O-TETRADECANOYLPHORBOL-13-ACETATE, 16561-29-8): 58%, 37%, 36%, not calculated

CC(C)CC(CN[C@@H](CC(C)C)C(N)=O)NC(=O)[C@H](Cc1cnc[nH]1)NC(=O)CNC(=O)[C@@H](NC(=O)C(C)NC(=O)[C@H](Cc1c[nH]c2ccccc12)NC(=O)[C@H](CCC(N)=O)NC(=O)[C@H]1Cc2c([nH]c3ccccc23)CN1)C(C)C (stereo partly drawn)
tumour outcome (control, treated, inhibition, significance) (Carcinogen: N-NITROSOBIS(2-OXOPROPYL)AMINE, 60599-38-4, Dose [Inhibitor]: 0, 5 UG/D FROM OSMOTIC PUMP FOR 2 MO, Route [Inhibitor]: SUBCUTANEOUS IMPLANT, Species: HAMSTER, Strain/Sex: SYRIAN/FEMALE, Target Tissue: Type of Lesion: PANCREAS: ADENOCARCINOMA): 10/11 (91%), 7/11 (64%), 30%, not calculated
tumour outcome (control, treated, inhibition, significance) (Carcinogen: N-NITROSOBIS(2-OXOPROPYL)AMINE, 60599-38-4, Dose [Inhibitor]: 0, 20 UG/D BEGINNING 18 WK POST CARCINOGEN TREATMENT AND CONTINUING FOR 8 WK (STUDY DURATION: 32 WK), Route [Inhibitor]: SUBCUTANEOUS, Species: HAMSTER, Strain/Sex: SYRIAN/FEMALE, Target Tissue: Type of Lesion: PANCREAS: ADENOCARCINOMA, Dose [Carcinogen]: TREATMENT FOR 6 WK (DOSE NOT STATED), Promoter: NONE USED): 12/12 (100%), 9/12 (75%), 25%, not significant
tumour outcome (control, treated, inhibition, significance) (Carcinogen: N-NITROSOBIS(2-OXOPROPYL)AMINE, 60599-38-4, Dose [Inhibitor]: 0, 20 UG/D FROM OSMOTIC PUMP FOR 2 MO, Route [Inhibitor]: SUBCUTANEOUS IMPLANT, Species: HAMSTER, Strain/Sex: SYRIAN/FEMALE, Target Tissue: Type of Lesion: PANCREAS: ADENOCARCINOMA, Promoter: NONE USED): 12/12 (100%), 6/12 (50%), 50%, not calculated
tumour outcome (control, treated, inhibition, significance) (Carcinogen: N-NITROSOBIS(2-OXOPROPYL)AMINE, 60599-38-4, Dose [Inhibitor]: 0, 30 UG/D BEGINNING 18 WK POST CARCINOGEN TREATMENT AND CONTINUING FOR 8 WK (STUDY DURATION: 32 WK), Route [Inhibitor]: SUBCUTANEOUS, Species: HAMSTER, Strain/Sex: SYRIAN/FEMALE, Target Tissue: Type of Lesion: PANCREAS: ADENOCARCINOMA, Dose [Carcinogen]: TREATMENT FOR 6 WK (DOSE NOT STATED), Promoter: NONE USED): 11/12 (92%), 8/12 (67%), 27%, not significant
tumour outcome (control, treated, inhibition, significance) (Carcinogen: N-NITROSOBIS(2-OXOPROPYL)AMINE, 60599-38-4, Dose [Inhibitor]: 0, 30 UG/D FOR 2 MO, Route [Inhibitor]: SUBCUTANEOUS, Species: HAMSTER, Strain/Sex: SYRIAN/FEMALE, Target Tissue: Type of Lesion: PANCREAS: ADENOCARCINOMA): 11/13 (85%), 12/13 (92%), -8%, not calculated
tumour outcome (control, treated, inhibition, significance) (Carcinogen: N-NITROSOBIS(2-OXOPROPYL)AMINE, 60599-38-4, Dose [Inhibitor]: 0, 60 UG/D BEGINNING 18 WK POST CARCINOGEN TREATMENT AND CONTINUING FOR 8 WK (STUDY DURATION: 32 WK), Route [Inhibitor]: SUBCUTANEOUS, Species: HAMSTER, Strain/Sex: SYRIAN/FEMALE, Target Tissue: Type of Lesion: PANCREAS: ADENOCARCINOMA, Dose [Carcinogen]: TREATMENT FOR 6 WK (DOSE NOT STATED), Promoter: NONE USED): 12/12 (100%), 2/12 (17%), 83%, p<0.01
